Measurements taken from US11166946B2 (CURATIS AG, priority 2018, dated 2021).
Like-named read-outs stand apart in the source and are kept apart here.

How the values were obtained:
rat = settings: in vivo, cited from earlier work
[1] = system: patients with peripheral vascular disease; settings: 300 mg, PO, t.i.d., 18-month period, 2,304 patients; cited from earlier work
mouse = settings: in vivo, cited from earlier work
[2] = single administration 300 mg, human subjects; cited from earlier work
[3] = system: patients presenting with migraine with aura; experiment: Randomized, double-blind, placebo controlled crossover study, aura events; format: in vivo, human
Description: A multi-center, randomized, double-blind, placebo controlled crossover study was conducted with picotamide. […] The overall study duration was 7×4 weeks. […] “Aura Events” was one of the parameters that was measured. […] These observations were particularly observed in a subgroup of patients (moderate patients) that on average had 3 to 6 aura events per month prior to study enrollment. Patients with less than 3 aura events per month could be considered mild patients and would therefore benefit to a lesser degree from treatment. Patients with 7 or more aura events could be considered severe patients that are difficult to treat.

platelets = settings: in vitro; cited from earlier work
mouse, rat and dog = settings: cited from earlier work
[4] = oral administration; biphasic clearance; cited from earlier work

SMILES	LD50 (rat; ip)	LD50 (rat; po)	effectiveness and safety [1]	LD50 (mouse; ip)	LD50 (mouse; po)	time to reach maximum concentration (Tmax) [2]	number of auras (aura events) ([3]; 300 mg twice daily 3×4 weeks, then placebo (Sequence A))	duration of continued improvement after switch to placebo ([3]; Sequence A, after 3×4 weeks of picotamide)	inhibition of platelet aggregation, degranulation and TxB2 production (platelets)	tolerability after subacute and chronic treatment (mouse, rat and dog; IP and PO, mouse, rat and dog)	embryotoxic or teratogenic effects (mouse, rat and dog; in vivo)	plasma clearance half-life, first rapid phase [4]
COc1ccc(C(=O)NCc2cccnc2)cc1C(=O)NCc1cccnc1 [picotamide, 4-methoxy-N,N′-bis(pyridin-3-ylmethyl)benzene-1,3-dicarboxamide]	685 ± 27 mg/kg	> 3,000 mg/kg	effective and well-tolerated antiplatelet drug with an incidence of adverse reactions similar to that of placebo	942 ± 29 mg/kg	> 3,000 mg/kg	30 to 45 min	reduces the number of auras even after picotamide administration	continued to improve for another 2×4 weeks	inhibits in vitro platelet aggregation, degranulation, and TxB2 production, in a dose dependent manner	well tolerated	did not induce embryotoxic or teratogenic effects	–
COc1ccc(C(=O)NCc2cccnc2)cc1C(=O)NCc1cccnc1 [picotamide monohydrate]	–	–	–	–	–	–	–	–	–	–	–	about 2 hours
